Data taken from patent US6281342A, “Pradimicin compounds” (Bristol-Myers Squibb Company, priority 1994, dated 2001).
Values after ≈ are worked out from the molar mass of the structure shown. Like-named read-outs stand apart in the source and are kept apart here.

Columns and labels:
[1] = tested on: Saccharomyces cerevisiae ATCC 9763; experiment: MIC, two-fold agar dilution, S. cerevisiae ATCC 9763; format: cell-based; conditions: ATCC9763, YMA pH 7.0, 28° C., 40 hours
Protocol: (§1) Minimum inhibitory concentrations (MICs) of nine 4'-N-substituted pradimicin derivatives were determined by two-fold agar dilution method on phosphate-buffered yeast morphology agar (YMA, pH 7.0, Difco Laboratories). A 5-μl of fungal cell suspension containing 2×10^6 cells/ml (2×10^7 cells/ml for Trichophyton mentagrophytes) were spotted on the surface of the agar plates containing test compound. MICs were recorded after 40-hour incubation at 28° C. except for T. mentagrophytes, which required 60-hour incubation to produce visually evaluable growth on the drug-free control plates and were defined as the lowest antibiotic concentrations showing no growth or less than five discrete colonies per spot.
(§2) Medium: yeast morphology agar + 1/15 M phosphate buffer (pH 7.0)
(§3) Incubation conditions: 28° C., 40 hours (C. albicans ATCC 38247 & T.
(§4) Medium: Yeast morphology agar + 1/15 phosphate buffer (pH 7.0).

[2] = tested on: Candida albicans IAM 4888; experiment: MIC, two-fold agar dilution, C. albicans IAM 4888; format: cell-based; conditions: IAM4888, YMA pH 7.0, 28° C., 40 hours
Protocol: as §1, §2, §3, §4

[3] = tested on: Candida albicans A9540; experiment: MIC, two-fold agar dilution, C. albicans A9540; format: cell-based
Protocol: as §1, §2, §3, §4

[4] = tested on: Candida albicans ATCC 38247; experiment: MIC, two-fold agar dilution, C. albicans ATCC 38247; format: cell-based; conditions: ATCC38247, YMA pH 7.0, 28° C., 60 hours (table footnote)
Protocol: as §1, §2, §3
(§5) mentagrophytes #4329: 28° C., 60 hours).
as §4

[5] = tested on: Candida albicans ATCC 32354; experiment: MIC, two-fold agar dilution, C. albicans ATCC 32354; format: cell-based; conditions: ATCC32354, YMA pH 7.0, 28° C., 40 hours
Protocol: as §1, §2, §3, §4

[6] = tested on: Candida albicans 83-2-14; experiment: MIC, two-fold agar dilution, C. albicans 83-2-14; format: cell-based; conditions: 83214, YMA pH 7.0, 28° C., 40 hours
Protocol: as §1, §2, §3, §4

[7] = tested on: Candida tropicalis 85-8; experiment: MIC, two-fold agar dilution, C. tropicalis 85-8; format: cell-based; conditions: 858, YMA pH 7.0, 28° C., 40 hours
Protocol: as §1, §2, §3, §4

[8] = tested on: Candida tropicalis IFO 10241; experiment: MIC, two-fold agar dilution, C. tropicalis IFO 10241; format: cell-based; conditions: IFO10241, YMA pH 7.0, 28° C., 40 hours
Protocol: as §1, §2, §3, §4

[9] = tested on: Cryptococcus neoformans D49; experiment: MIC, two-fold agar dilution, C. neoformans D49; format: cell-based; conditions: YMA pH 7.0, 28° C., 40 hours
Protocol: as §1, §2, §3, §4

[10] = tested on: Cryptococcus neoformans IAM 4514; experiment: MIC, two-fold agar dilution, C. neoformans IAM 4514; format: cell-based; conditions: IAM4514
Protocol: as §1, §2, §3, §4

[11] = tested on: Aspergillus fumigatus IAM 2034; experiment: MIC, two-fold agar dilution, A. fumigatus IAM 2034; format: cell-based; conditions: IAM2034
Protocol: as §1, §2, §3, §4

[12] = tested on: Trichophyton mentagrophytes #4329; experiment: MIC, two-fold agar dilution, T. mentagrophytes #4329; format: cell-based
Protocol: as §1, §2, §3, §5, §4

[13] = tested on: Candida albicans A9540; experiment: animal or person; format: in vivo, male ICR mice infected with Candida albicans A9540; conditions: Candida albicans, A9540, 480 h, C. albicans, mice; for responders at 6.3 mg/kg: 6.3 mg/kg iv; for responders at 6.3 mg/kg / responders at 12.5 mg/kg / responders at 25 mg/kg / responders at 50 mg/kg: 20th day post-infection, read-out: S/T (No. of survivors/tested) (converted); for responders at 12.5 mg/kg: 12.5 mg/kg iv; for responders at 25 mg/kg: 25 mg/kg iv; for responders at 50 mg/kg: 50 mg/kg iv; for ED50: Table 2, iv, 95% confidence limits in parentheses, read-out: PD50 (50% protection dose)
Protocol: (§6) The in vivo therapeutic efficacies of seven 4'-N-substituted pradimicin derivatives, KHM-1, KHM-2, KHM-3, KHM-4, KHM-5, KHM-6 and KHM-7 were evaluated in the mouse infected with Candida albicans A9540 and Aspergillus fumigatusIAM 2034. Groups of five specific-pathogen-free male ICR mice weighing 20-25 g at each dose level were intravenously infected with approximately 10 times the 50% lethal dose of C. albicans A9540 (1×10^6 cells/mouse) or A. fumigatus IAM 2034 (1×10^7 cells/mouse). Immediately after the fungal infection, test compounds dissolved with 10% DMSO in distilled water were intravenously given to the mouse at the dosed volume of 0.1 ml/10 g of body weight. […] Untreated control animals died 7 to 13 days post-infection.

[14] = tested on: Aspergillus fumigatus IAM 2034; experiment: Therapeutic efficacy in Aspergillus fumigatus systemic infection in mice; format: in vivo, male ICR mice infected with Aspergillus fumigatus IAM 2034; conditions: IAM2034, 480 h; for responders at 6.3 mg/kg: 6.3 mg/kg iv; for responders at 6.3 mg/kg / responders at 12.5 mg/kg / responders at 25 mg/kg / responders at 50 mg/kg: 20th day post-infection, read-out: S/T (No. of survivors/tested) (converted); for responders at 12.5 mg/kg: 12.5 mg/kg iv; for responders at 25 mg/kg: 25 mg/kg iv; for responders at 50 mg/kg: 50 mg/kg iv
Protocol: as §6

[15] = Water solubility at neutral pH in PBS containing Ca^2+/Mg^2+; format: physicochemical; conditions: pbs with ca2+/mg2+; Table 3; water-solubility at neutral pH in phosphate buffered saline containing Ca^2+/Mg^2+
Protocol: The compounds of the invention have good water solubility. Typically, the water solubility is greater than 10 mg/ml when measured at neutral pH in PBS containing Ca^2+ /Mg^2+, preferably greater than 20 mg/ml.
^2) Water-solubility at neutral pH in phosphate buffered saline
containing Ca^2+ /Mg^2+.

[16] = Candida albicans A9540, YMA pH 7.0, 28° C., 40 hours, read-out: MIC
[17] = Table 3, Candida albicans A9540, YMA, read-out: MIC Ca-4
[18] = Cryptococcus neoformans IAM 4514, YMA pH 7.0, 28° C., 40 hours, read-out: MIC
[19] = Table 3, Cryptococcus neoformans IAM 4514, YMA, read-out: MIC Cn-2
[20] = Aspergillus fumigatus IAM 2034, YMA pH 7.0, 28° C., 40 hours, read-out: MIC
[21] = Table 3, Aspergillus fumigatus IAM 2034, YMA, read-out: MIC Af-3
[22] = Table 3, Trichophyton mentagrophytes #4329, YMA, read-out: MIC TM-4
[23] = Trichophyton mentagrophytes #4329, YMA pH 7.0, 28° C., 60 hours, read-out: MIC
[24] = Aspergillus fumigatus, A. fumigatus, mice
[25] = Aspergillus fumigatus, Table 2, A. fumigatus, mice, iv, 95% confidence limits in parentheses, read-out: PD50 (50% protection dose)

## COc1cc(O)c2c(c1)C(=O)c1c(cc3c(c1O)-c1c(cc(C)c(C(=O)N[C@H](C)C(=O)O)c1O)[C@H](O[C@@H]1O[C@H](C)[C@H](NC#N)[C@H](O[C@@H]4OC[C@@H](O)[C@H](O)[C@H]4O)[C@H]1O)[C@H]3O)C2=O [KHM-2, 4'-N-Cyanopradimicin C]
[1]
  MIC: 3.1 µg/mL (≈ 3.64 µM)
[2]
  MIC: 3.1 µg/mL (≈ 3.64 µM)
[3]; [16]
  MIC: 3.1 µg/mL (≈ 3.64 µM)
[3]; [17]
  MIC: 3.1 µg/mL (≈ 3.64 µM)
[4]
  MIC: 1.6 µg/mL (≈ 1.88 µM)
[5]
  MIC: 3.1 µg/mL (≈ 3.64 µM)
[6]
  MIC: 6.3 µg/mL (≈ 7.4 µM)
[7]
  MIC: 12.5 µg/mL (≈ 14.7 µM)
[8]
  MIC: 12.5 µg/mL (≈ 14.7 µM)
[9]
  MIC: 3.1 µg/mL (≈ 3.64 µM)
[10]; [18]
  MIC: 1.6 µg/mL (≈ 1.88 µM)
[10]; [19]
  MIC: 1.6 µg/mL (≈ 1.88 µM)
[11]; [20]
  MIC: 3.1 µg/mL (≈ 3.64 µM)
[11]; [21]
  MIC: 3.1 µg/mL (≈ 3.64 µM)
[12]; [22]
  MIC: 12.5 µg/mL (≈ 14.7 µM)
[12]; [23]
  MIC: 12.5 µg/mL (≈ 14.7 µM)
[13]
  responders at 6.3 mg/kg: 20%
  responders at 12.5 mg/kg: 40%
  responders at 25 mg/kg: 80%
  responders at 50 mg/kg: 100%
  ED50: 13 mg/kg
[14]; [24]
  responders at 6.3 mg/kg: 0%
  responders at 12.5 mg/kg: 20%
  responders at 25 mg/kg: 40%
  responders at 50 mg/kg: 60%
[14]; [25]
  ED50: 27 mg/kg
[15]
  solubility: > 20 mg/mL

## COc1cc(O)c2c(c1)C(=O)c1c(cc3c(c1O)-c1c(cc(C)c(C(=O)N[C@H](CO)C(=O)O)c1O)[C@H](O[C@@H]1O[C@H](C)[C@H](NC#N)[C@H](O[C@@H]4OC[C@@H](O)[C@H](O)[C@H]4O)[C@H]1O)[C@H]3O)C2=O [KHM-4, 4'-N-Cyanopradimicin FA2]
[1]
  MIC: 3.1 µg/mL (≈ 3.57 µM)
[2]
  MIC: 6.3 µg/mL (≈ 7.26 µM)
[3]; [16]
  MIC: 6.3 µg/mL (≈ 7.26 µM)
[3]; [17]
  MIC: 6.3 µg/mL (≈ 7.26 µM)
[4]
  MIC: 3.1 µg/mL (≈ 3.57 µM)
[5]
  MIC: 3.1 µg/mL (≈ 3.57 µM)
[6]
  MIC: 6.3 µg/mL (≈ 7.26 µM)
[7]
  MIC: 12.5 µg/mL (≈ 14.4 µM)
[8]
  MIC: 12.5 µg/mL (≈ 14.4 µM)
[9]
  MIC: 6.3 µg/mL (≈ 7.26 µM)
[10]; [18]
  MIC: 3.1 µg/mL (≈ 3.57 µM)
[10]; [19]
  MIC: 3.1 µg/mL (≈ 3.57 µM)
[11]; [20]
  MIC: 6.3 µg/mL (≈ 7.26 µM)
[11]; [21]
  MIC: 6.3 µg/mL (≈ 7.26 µM)
[12]; [22]
  MIC: 12.5 µg/mL (≈ 14.4 µM)
[12]; [23]
  MIC: 12.5 µg/mL (≈ 14.4 µM)
[13]
  responders at 6.3 mg/kg: 0%
  responders at 12.5 mg/kg: 20%
  responders at 25 mg/kg: 60%
  responders at 50 mg/kg: 80%
  ED50: 20 mg/kg
[14]; [24]
  responders at 6.3 mg/kg: 0%
  responders at 12.5 mg/kg: 0%
  responders at 25 mg/kg: 0%
  responders at 50 mg/kg: 0%
[14]; [25]
  ED50: > 50 mg/kg
[14]; Table 3, Aspergillus fumigatus IAM 2034, iv, read-out: PD50 (mice) Af-3
  ED50: > 50 mg/kg
[15]
  solubility: > 20 mg/mL
